“Also recorded” adds a separate entry of the source.
Legend:
[1] = system: progesterone receptor (PgR) gene expression in MCF-7 cells; test: PgR mRNA expression by quantitative real time RT-PCR; type: cell-based; details: for level of PgR expression: ligand in the presence of 0.1 nM E2, MCF-7 (E2 alone 5-fold); for increase in PgR expression compared with control: ligands only, vs DMSO
Source text: Total RNA was isolated from MCF-7 cells, reverse-transcribed into cDNA and subjected to real-time RT-PCR analysis for quantification. […] Results are expressed as the mean unit±SEM.

MCF-7 cells = test: clonogenic (colony) assay; type: cell-based
Description: MCF-7 cells were placed in phenol red-free DMEM supplemented with 5% dextran-coated charcoal-treated FBS for 48 h before plating. MCF-7 cells (1000) were plated in six well plates. […] Colonies of >50 cells were counted as positive. Results are normalized to percentage of clonogenic survival from DMSO control cells.

[2] = system: ERE transcriptional activity in MCF-7 cells; test: ERE luciferase reporter gene assay, estrogenic activity; type: cell-based; details: for ERE transcriptional activity induced: 25 μM; for estrogenic (ERE) activity, in words: MCF-7, compound alone
Description: MCF-7 cells were transiently transfected with pGL2-ERE2x-TK-luciferase plasmid. […] While this order varied slightly as analog concentrations were increased further to 25 μM, several trends have emerged in the dose-dependent data. […] Second, shorter alkyl groups appear to have less effect on the reduction of ER agonist activity than their longer, bulkier counterparts.

[3] = system: E2 stimulation on ERE transcriptional activity in MCF-7 cells; test: ERE luciferase reporter gene assay in the presence of 0.1 nM E2, antiestrogenic activity; type: cell-based; details: for inhibition at 25 µM: Homo sapiens, MCF7, 25 μM (highest concentration) plus 0.1 nM E2, read-out: reduction of estradiol-dependent luciferase activity
Description: MCF-7 cells were transiently transfected with pGL2-ERE2x-TK-luciferase plasmid. […] The luciferase activities of the treated cells were then measured by the ERE reporter gene assay.

MCF-7 cell tumorigenesis = test: estrogen stimulated MCF-7 cell tumorigenesis xenograft model; type: in vivo, Nu/Nu mice; details: day 37 post cell injection; mean±SEM; control 351.17±43.88
Description: 4-6 week old ovariectomized female Nu/Nu mice were injected bilaterally in the mammary fat pad (MFP) with 5×10^6 MCF-7 cells in matrigel (reduced factor). […] Tumors were allowed to form and at day 15 post cell injection mice were randomized into groups (n=5). Animals were treated daily with i.p. injections of either vehicle (1:5 DMSO/PBS) or analog 2 (50 mg/kg/animal). Tamoxifen animals were implanted with a slow release tamoxifen pellet in the lateral area of the neck (opposite side from E2 pellet). ICI animals were given a onetime i.p. injection of ICI 182,780 (5 mg in castor oil). Tumor size was measured 3 times weekly using digital calipers. Data represented as mean tumor volume±SEM.
Due to the anti-estrogenic effects of analog 2 on MCF-7 cells observed in the in vitro biological assays, this analog was selected for further testing of estrogen stimulated MCF-7 cell tumorigenesis using a xenograft model. Ovariectomized female immunocompromised mice were injected with MCF-7 cells and supplemented with exogenous estrogen pellets. Once tumors were palpable animals were treated with analog 2, tamoxifen, or ICI and tumor volume compared to vehicle control animals.
Xenograft experiments were conducted using previously published protocols. Briefly, 4-6 week old female ovariectomized NU/Nu mice were obtained from Charles River Laboratories (Wilmington, Mass.). The animals were allowed a period of adaptation in a sterile and pathogen-free environment with phytoestrogen-free food and water ad libitum. MCF-7 cells were harvested in the exponential growth phase using a PBS/EDTA solution and washed. Mice were injected bilaterally in the mammary fat pad (M.F.P) with 5×10^6 viable cells suspended in 50 μL sterile PBS mixed with 100 μL Matrigel (reduced factor; BD Biosciences, Bedford, Mass.). […] All procedures in animals were carried out under anesthesia using a mix of isofluorane and oxygen delivered by mask. […] Tumor size was measured 3 times weekly using digital calipers. The volume of the tumor was calculated using the following formula: 4/3 πLS^2 (L=larger radius; S=shorter radius). […]

MDA-MB-157 = test: transwell migration assay; type: cell-based; details: 10 μM, 24 hours
Description: (§1) TNBC cells were seeded (2.5×10^4 in 500 μl 10% DMEM) in the upper chamber of a 24 well transwell system. DMEM supplemented with FBS (10%) was used as a chemoattractant in the lower wells. After 24 hours of treatment (DMSO or analog 2 10 μM), membranes were scrubbed, stained with 0.1% crystal violet, and the number of migrated cells analyzed by microscopy. Data represented as normalized means of triplicate experiments±SEM. […] The TNBC phenotype is characterized by highly aggressive and migratory cells. The ability of analog 2 to inhibit this migration indicates its potential as a novel anti-metastatic therapeutic in the triple-negative breast carcinoma setting.

MDA-MB-231 = test: transwell migration assay; type: cell-based; details: 10 μM, 24 hours
Description: as §1

BT-549 = test: transwell migration assay; type: cell-based; details: 10 μM, 24 hours
Description: as §1

[4] = system: AKT and mTOR phosphorylation in MDA-MB-231 cells; test: immunoblot of phospho-AKT and mTOR; type: cell-based
Description: The effects of analog 2 on TNBC may be mediated via alterations in the PI3K/AKT/mTOR pathway. After 72 hours in 5% charcoal-stripped fetal bovine serum (CSFBS) DMEM phenol-free medium, MDA-MB-231 cells were re-fed with either medium-containing vehicle, analog 2 (10 μM, 4 hours), analog 2 (4 hours) followed by EGF stimulation (50 ng/mL, 30 minutes), or EGF alone (30 minutes). Membranes were probed with primary antibodies according to manufacturers' protocol. Antibodies: phosho-AKT (S473 and T308), mTOR ([…]), and corresponding total protein antibodies (Cell Signaling), using rho as a loading control (Santa Cruz).

MDA-MB-231 cells = test: MDA-MB-231 xenograft tumor volume; type: in vivo, CB-17/SCID mice
Description: 4-6 week old female CB-17/SCID mice were allowed a period of adaptation in a sterile and pathogen-free environment with phytoestrogen-free food and water ad libitum. MDA-MB-231 cells were harvested in the exponential growth phase using a PBS/EDTA solution and washed. Mice were injected bilaterally in the mammary fat pad (MFP) with 5×10^6 viable cells suspended in 50 μL sterile PBS mixed with 100 μL Matrigel (reduced factor; BD Biosciences, Bedford, Mass.). Tumors were allowed to form, and at day 4 post cell injection mice were randomized into groups of 5 mice each. Mice were treated daily with intra-peritoneal (IP) injections of either vehicle (DMSO) or analog 2 (50 mg/kg/animal/day) for 14 days. External tumor size was measured using digital calipers and tumor volume calculated using the formula: 4/3 π LS^2 (L=larger radius; S=shorter radius). At necropsy, animals were euthanized by cervical dislocation after exposure to CO2. […] This trend continued until the mice were euthanized at day 18, where tumor volume for control mice averaged 188±18.78 mm^3 and the tumor volume for mice treated with analog 2 averaged 91.11±10.15 mm^3.

## COc1ccc2c(=O)c(-c3ccc(O)cc3)coc2c1 [3a, 3-(4-Hydroxyphenyl)-7-methoxychromen-4-one]
[1]
  level of PgR expression: 4 fold
[1]; MCF-7
  increase in PgR expression compared with control: 3 fold
MCF-7 cells; 1 μM, without E2, vs DMSO
  increase of cell proliferation (clonogenicity): 43%
MCF-7 cells; 10 μM, without E2, vs DMSO
  increase in clonogenicity of MCF-7 cells: 24%
[2]; 10 μM, MCF-7, normalized to E2 (100)
  ERE activity: 38%
[2]; MCF-7, normalized to E2 (100)
  ERE transcriptional activity induced: 70.9%
[3]
  inhibition at 25 µM: < 47%

## CCOc1ccc2c(=O)c(-c3ccc(O)cc3)coc2c1 [3b, 3-(4-Hydroxyphenyl)-7-ethoxychromen-4-one]
[2]; MCF-7, normalized to E2 (100)
  ERE transcriptional activity induced: 80.4%
[3]
  inhibition at 25 µM: < 47%

## CCCOc1ccc2c(=O)c(-c3ccc(O)cc3)coc2c1 [3c, 3-(4-Hydroxyphenyl)-7-propoxychromen-4-one]
[2]; MCF-7, normalized to E2 (100)
  ERE transcriptional activity induced: 38.4%
[3]
  inhibition at 25 µM: < 47%

## CC(C)Oc1ccc2c(=O)c(-c3ccc(O)cc3)coc2c1 [3d, 3-(4-Hydroxyphenyl)-7-isopropoxychromen-4-one]
[3]
  inhibition at 25 µM: > 60%

## CCCCOc1ccc2c(=O)c(-c3ccc(O)cc3)coc2c1 [3e, 7-Butoxy-3-(4-hydroxyphenyl)chromen-4-one]
[3]
  inhibition at 25 µM: < 47%

## CC(C)COc1ccc2c(=O)c(-c3ccc(O)cc3)coc2c1 [3f, 3-(4-Hydroxyphenyl)-7-isobutoxychromen-4-one]
[2]
  estrogenic (ERE) activity, in words: negligible ERE activity
[3]
  inhibition at 25 µM: > 60%

## O=c1c(-c2ccc(O)cc2)coc2cc(OC3CCCC3)ccc12 [3g, 7-Cyclopentyloxy-3-(4-hydroxyphenyl)chromen-4-one]
[2]
  estrogenic (ERE) activity, in words: negligible ERE activity
[3]
  inhibition at 25 µM: > 60%

## CCCCCCOc1ccc2c(=O)c(-c3ccc(O)cc3)coc2c1 [3h, 7-Hexyloxy-3-(4-hydroxyphenyl)chromen-4-one]
[3]
  inhibition at 25 µM: < 47%

## C[C@]12CC[C@@H]3c4ccc(O)cc4CC[C@H]3[C@@H]1CC[C@@H]2O [E2, 17β-estradiol, reference compound]
[1]; MCF-7
  increase in PgR expression compared with control: 5 fold
MCF-7 cells; 0.1 nM, vs DMSO treated controls
  increase in clonogenicity of MCF-7 cells: approximately 3 fold

## C[C@]12CC[C@@H]3c4ccc(O)cc4C[C@@H](CCCCCCCCC[S+]([O-])CCCC(F)(F)C(F)(F)F)[C@H]3[C@@H]1CC[C@@H]2O (stereo partly drawn) [ICI 182,780]
MCF-7 cell tumorigenesis
  tumor volume: 130.95±23.49 mm3

## CC1(C)C=Cc2c(ccc3c(=O)c(-c4ccc(O)cc4)coc23)O1 [compound 2, 3-(4-Hydroxyphenyl)-8,8-dimethyl-8H-pyrano[2,3-f]chromen-4-one]
[1]
  level of PgR expression: 3 fold
[1]; ligand only, MCF-7
  PgR expression compared with DMSO, in words: decrease in PgR expression
MCF-7 cells; 10 μM plus 0.1 nM estradiol
  clonogenicity in the presence of E2, in words: inhibit the clonogenicity of MCF-7 cells completely
MCF-7 cells; 10 μM, without E2
  cell clonogenicity, in words: completely blocked cell clonogenicity
MCF-7 cells; Homo sapiens, MCF7, read-out: inhibition of clonogenicity
  inhibition at 1 µM: 15%
MDA-MB-157
  number of migrated cells compared to control (normalized to 100%): 25.57%
MDA-MB-231
  number of migrated cells compared to control (normalized to 100%): 0%
BT-549
  number of migrated cells compared to control (normalized to 100%): 0.08%
[4]; 10 μM 4 hours then EGF 50 ng/mL 30 minutes
  effect on EGF-stimulated AKT and mTOR phosphorylation, in words: significantly abrogate the effects of EGF stimulation on AKT and mTOR phosphorylation
[4]; 10 μM, 4 hours
  phospho-levels of AKT at S473 and T308, in words: significant decreases
MCF-7 cell tumorigenesis
  tumor volume: 241.53±68.29 mm3
[2]
  estrogenic (ERE) activity, in words: little or no estrogen activity; also recorded: negligible ERE activity
MDA-MB-231 cells; day 18, 50 mg/kg/animal/day IP for 14 days, control 188±18.78
  tumor volume: 91.11±10.15 mm^3
MDA-MB-231 cells; seven days after cell injection, three days' treatment
  tumor volume vs control, in words: statistically less than those of control mice
[3]; 25 μM plus 0.1 nM E2
  blocking of ERE activity, in words: completely blocking ERE activity

## O=c1c(-c2ccc(O)cc2)coc2cc(O)ccc12 [daidzein, reference compound]
[1]
  level of PgR expression: 5 fold
[1]; MCF-7
  increase in PgR expression compared with control: 3 fold
MCF-7 cells; 1 μM, without E2, vs DMSO
  increase in clonogenicity of MCF-7 cells: over 3 fold
MCF-7 cells; 10 μM, without E2, vs DMSO
  increase in clonogenicity of MCF-7 cells: 2.5 times
[2]
  estrogenic (ERE) activity, in words: more potent estrogenic activity than any of its derivatives

## CC/C(=C(\c1ccccc1)c1ccc(OCCN(C)C)cc1)c1ccccc1 [tamoxifen]
MCF-7 cell tumorigenesis
  tumor volume: 178.12±41.18 mm3
